In the Deep4Chem optical property database:
One block for each compound: values may come before it.

Test: solvent given as SMILES

absorption maximum (in ClCCl): 328 nm
SMILES: c1ccc(C2c3ccccc3-c3cc4c(cc32)-c2ccccc2C4c2ccccc2)cc1 (stereo not given)

absorption maximum (in C1CCOC1): 370 nm
SMILES: c1cc2ccc1-c1ccc(cc1)-c1ccc([se]1)-c1ccc(cc1)-c1ccc(cc1)-c1ccc([se]1)-c1ccc(cc1)-c1ccc(cc1)-c1ccc([se]1)-c1ccc(cc1)-c1ccc(cc1)-c1ccc-2[se]1

absorption maximum (in ClC(Cl)Cl): 422 nm
SMILES: N#Cc1cc2ccc3cc(C#N)c4ccccc4c3c2c2ccccc12

absorption maximum (in CS(C)=O): 736 nm
SMILES: COc1ccc(-c2c3nc(cc4ccc([nH]4)c(-c4ccc(OC)c(OCCCC(=O)O)c4)c4nc(cc5ccc2[nH]5)CC4)CC3)cc1OCCCC(=O)O

absorption maximum (in ClCCl): 354 nm
SMILES: COc1ccc(C2=CC(c3ccccc3)=C(c3ccccc3)C2)c2ccccc12

absorption maximum (in CN(C)C=O): 668 nm
SMILES: C[Si](C)(C)O[Si]1(O[Si](C)(C)C)n2c3c4ccccc4c2/N=C2N=C(/N=c4/c5ccccc5/c(n41)=N/C1=NC(=N\3)/c3ccccc31)c1ccccc1\2

absorption maximum (in C1CCOC1): 431 nm
absorption maximum (in CC#N): 431 nm
absorption maximum (in CCO): 435 nm
absorption maximum (in CS(C)=O): 457 nm
SMILES: CCOC(=O)c1ccccc1-c1c2ccc(=O)cc-2oc2cc(OC(=O)[C@H](CSCc3ccc(C)cc3)NC(=O)OC(C)(C)C)ccc12

absorption maximum (in ClCCl): 482 nm
SMILES: Nc1ccc2c(ccc3[n+]2[B-](F)(F)n2c-3cc3c4ccccc4c4ccccc4c32)c1

absorption maximum (in ClCCl): 317 nm
SMILES: C(=C\c1cc(/C=C/c2ccccc2)cc(/C=C/c2ccccc2)c1)/c1ccccc1

absorption maximum (in ClCCl): 284 nm
SMILES: c1ccc(N(c2ccccc2)c2ccc(-c3ccc(-c4cc(-c5ccccn5)nc(-c5ccccn5)c4)cc3)cc2)cc1

absorption maximum (in C1CCOC1): 337 nm
SMILES: CCCCn1c2ccc(-c3cccs3)cc2c2c1c1c3ccc(-c4cccs4)cc3n(CCCC)c1c1c3ccc(-c4cccs4)cc3n(CCCC)c21

absorption maximum (in ClCCl): 414 nm
SMILES: CC(C)(C)c1cc2ccc3c(N(c4ccc(F)cc4)c4ccc(F)cc4)cc(N(c4ccc(F)cc4)c4ccc(F)cc4)c4ccc(c1)c2c34

absorption maximum (in ClC(Cl)Cl): 362 nm
SMILES: CN(C)c1ccc(-c2ccc(-c3cc(-c4ccccc4)c(-c4ccccc4)c(-c4ccccc4)c3-c3ccccc3)s2)cc1

absorption maximum (in CC#N): 330 nm
SMILES: c1ccc(-c2nc3cc4c(cc3n2-c2ccccc2)nc(-c2ccccc2)n4-c2ccccc2)cc1

absorption maximum (in CN(C)C=O): 524 nm
SMILES: Nc1ccc(N2C(=O)c3ccc4c5ccc6c7c(ccc(c8ccc(c3c48)C2=O)c75)C(=O)NC6=O)cc1

absorption maximum (in CC#N): 383 nm
SMILES: Cc1ccc(-c2sc(/C(C#N)=C/c3ccc(C#N)cc3)nc2-c2ccc(Cl)cc2)cc1

absorption maximum (in ClCCl): 498 nm
SMILES: Cc1ccc(C2=C(c3ccc(C)cc3)c3cccc4c3c(cc3nc5ccccc5nc34)O2)cc1

absorption maximum (in ClCCl): 435 nm
SMILES: CN(c1ccccc1)c1ccc(N(c2ccccc2)c2ccc3ccc4c(N(c5ccccc5)c5ccc(N(C)c6ccccc6)cc5)ccc5ccc2c3c54)cc1

absorption maximum (in C1CCOC1): 328 nm
SMILES: COc1ccc(-n2c(-c3ccc(-c4cncc5ccccc45)cc3)nc(-c3ccccc3)c2-c2ccccc2)cc1

absorption maximum (in C1CCOC1): 665 nm
SMILES: F[B-]1(F)n2c(/C=C/c3ccc(C(=C(c4ccccc4)c4ccccc4)c4ccccc4)cc3)ccc2C(c2ccccc2)=C2C=CC(/C=C/c3ccc(C(=C(c4ccccc4)c4ccccc4)c4ccccc4)cc3)=[N+]21

absorption maximum (in ClCCl): 369 nm
SMILES: CCCCC(CC)Cn1c2cc(-c3ccc(N(c4ccccc4)c4ccccc4)cc3)c(C#N)cc2c2cc(C#N)c(-c3ccc(N(c4ccccc4)c4ccccc4)cc3)cc21 (stereo not given)

absorption maximum (in ClC(Cl)Cl): 327 nm
SMILES: CCCCCCCCC1(CCCCCCCC)c2cc(-c3ccccc3)ccc2-c2ccc(-c3ccccc3)cc21

absorption maximum (in ClCCl): 349 nm
SMILES: c1ccc(N(c2ccccc2)c2ccc(-c3ccc(-c4nc(-c5ccccn5)n(-c5ccccc5)n4)cc3)cc2)cc1

The next lines start with the compound.

SMILES: CNC(=O)[C@H](C)NC(=O)c1cccc2c1C#Cc1c(NC(=O)[C@@H](NC(C)=O)C(C)C)cccc1OCCCO2
absorption maximum (in CC#N): 324 nm
absorption maximum (in ClCCl): 336 nm

SMILES: CNc1ccc2nc3cc(Cl)c(Cl)cc3nc2c1
absorption maximum (in CCO): 490 nm

SMILES: COc1ccc(-c2ccc(-c3ccc(OC)cc3)cc2)cc1
absorption maximum (in C1CCCCC1): 293 nm

SMILES: CCOC(=O)c1cc(C(=O)OCC)c2cc(C(=O)O)ccc2n1
absorption maximum (in CCO): 316 nm

SMILES: CCCCC1=Cc2c3ccc4cccc5ccc(c6cc(-c7ccccc7)n(c26)P1(=O)c1ccccc1)c3c45 (stereo not given)
absorption maximum (in C1CCCCC1): 430 nm
absorption maximum (in C1CCOC1): 430 nm
absorption maximum (in C1COCCO1): 430 nm
absorption maximum (in CC#N): 426 nm
absorption maximum (in CC(C)=O): 427 nm
absorption maximum (in CO): 426 nm
absorption maximum (in Cc1ccccc1): 433 nm
absorption maximum (in ClC(Cl)Cl): 431 nm
absorption maximum (in ClCCl): 430 nm

SMILES: C[Si](C)(C)C#CC(C#C[Si](C)(C)C)=Cc1ccc(C=C(C#C[Si](C)(C)C)C#C[Si](C)(C)C)cc1
absorption maximum (in ClC(Cl)Cl): 412 nm

SMILES: CCCCN1C(=O)c2c(Br)c(Br)c3c4c(Br)c(Br)c5c6c(c(Br)c(Br)c(c7c(Br)c(Br)c(c2c37)C1=O)c64)C(=O)N(CCCC)C5=O
absorption maximum (in ClC(Cl)Cl): 538 nm

SMILES: Cc1ccc(C2CC(c3ccc(O)cc3)=NN2c2ccc(S(N)(=O)=O)cc2)cc1 (stereo not given)
absorption maximum (in C1CCOC1): 359 nm
absorption maximum (in C1COCCO1): 360 nm
absorption maximum (in CC#N): 358 nm
absorption maximum (in CC(C)O): 358 nm
absorption maximum (in CCO): 358 nm
absorption maximum (in CCOC(C)=O): 358 nm
absorption maximum (in CN(C)C=O): 362 nm
absorption maximum (in CO): 357 nm
absorption maximum (in CS(C)=O): 364 nm
absorption maximum (in O): 360 nm

SMILES: CC(C)(C)Nc1cc(F)c(C(=O)c2cc(F)c(NC(C)(C)C)cc2F)cc1F
absorption maximum (in CCO): 348 nm

SMILES: Cc1ccc2c(c1)C1(c3ccccc3-c3ccccc31)c1cc(C)ccc1N2c1ccc2c(c1)Sc1ccccc1P2(=S)c1ccccc1 (stereo not given)
absorption maximum (in Cc1ccccc1): 311.25 nm

SMILES: CC(C)(C)n1c(=O)c2cc3ccc4cccc5ccc(c2c1=O)c3c45
absorption maximum (in ClC(Cl)Cl): 423 nm

SMILES: C[n+]1cc2ccc3c[n+](C)cc4ccc(c1)c2c34
absorption maximum (in CC#N): 418 nm

SMILES: CC1=CC(C)=[N+]2C1=Cc1c3ccccc3c(C#Cc3ccc(F)cc3)n1[B-]2(F)F
absorption maximum (in CCCCCC): 609 nm
absorption maximum (in CCCCCCCCO): 613 nm
absorption maximum (in CCOC(C)=O): 607 nm
absorption maximum (in CN(C)C=O): 612 nm

SMILES: COC(=O)c1cc(=O)n(C)c2cc(-c3ccccc3OC)sc12
absorption maximum (in CC#N): 396 nm
absorption maximum (in ClCCl): 398 nm

SMILES: CN1/C(=C/C2=C([O-])C(=O)C2=C2C(=O)NC(=O)NC2=O)C(C)(C)c2ccccc21
absorption maximum (in CCO): 457 nm

SMILES: CCC1=C(C)C(=O)n2c1cc1c(C)c(CC(=O)OC)c(C)n1c2=O
absorption maximum (in CC#N): 413 nm
absorption maximum (in CC(C)=O): 413 nm
absorption maximum (in CO): 420 nm
absorption maximum (in CS(C)=O): 421 nm
absorption maximum (in ClC(Cl)Cl): 423 nm
absorption maximum (in c1ccccc1): 416 nm

SMILES: Nc1ccc2c(-c3ccc(C(=O)CN4C(=O)CCC4=O)cc3C(=O)[O-])c3ccc(=[NH2+])c(S(=O)(=O)[O-])c-3oc2c1S(=O)(=O)[O-]
absorption maximum (in O): 494 nm

SMILES: CCC12C(=C3C(=C4c5ccc(-c6ccc(C)s6)cc5S(=O)(=O)C41CC)C(F)(F)C(F)(F)C3(F)F)c1ccc(-c3ccc(C)s3)cc1S2(=O)=O (stereo not given)
absorption maximum (in C1COCCO1): 506 nm
absorption maximum (in CC#N): 507 nm
absorption maximum (in CCCCCC): 489 nm
absorption maximum (in CCO): 508 nm
absorption maximum (in CS(C)=O): 525.37 nm
absorption maximum (in ClC(Cl)(Cl)Cl): 497.35 nm
absorption maximum (in ClCCl): 507.67 nm

SMILES: Nc1ccc(/C=C/c2ccccc2)cc1
absorption maximum (in CC#N): 318 nm
absorption maximum (in CCCCCC): 316 nm

SMILES: CC(C)(C)NC(=O)c1ccc2ccc3cccc4ccc1c2c34
absorption maximum (in ClC(Cl)Cl): 377 nm

SMILES: N#Cc1cc2ccc(O)cc2oc1=O
absorption maximum (in C1CCCCC1): 361 nm
absorption maximum (in C1CCOC1): 355 nm
absorption maximum (in CC#N): 352 nm
absorption maximum (in CCOC(C)=O): 356 nm
absorption maximum (in CS(C)=O): 351 nm
absorption maximum (in ClC(Cl)Cl): 359 nm
absorption maximum (in O): 355 nm

SMILES: c1ccc2c(c1)ccc1c3ccccc3ccc21
absorption maximum (in ClCCl): 322 nm

SMILES: CC(=O)c1c2c(cc3ccc(N(C)C)cc13)CCC2
absorption maximum (in C1CCCCC1): 373 nm
absorption maximum (in C1CCOC1): 377 nm
absorption maximum (in C1COCCO1): 376 nm
absorption maximum (in CC#N): 375 nm
absorption maximum (in CCO): 377 nm
absorption maximum (in CS(C)=O): 377 nm
absorption maximum (in Cc1ccccc1): 376 nm
absorption maximum (in ClC(Cl)Cl): 377 nm
absorption maximum (in ClCCl): 377 nm

SMILES: CC(C)(C)c1ccc(C2=c3sc4ccccc4c3=[N+]3C2=Nc2c(-c4ccc(C(C)(C)C)cc4)c4sc5ccccc5c4n2[B-]3(F)F)cc1
absorption maximum (in C1CCOC1): 709 nm
absorption maximum (in Cc1ccccc1): 715 nm
absorption maximum (in ClC(Cl)Cl): 711 nm

SMILES: O=C1c2ccccc2S(=O)(=O)c2ccc(-n3c4ccccc4c4ccccc43)cc21
absorption maximum (in C1CCOC1): 404 nm
absorption maximum (in CCCCCC): 404 nm
absorption maximum (in Cc1ccccc1): 404 nm
absorption maximum (in ClC(Cl)Cl): 404 nm
absorption maximum (in ClCCl): 404 nm

SMILES: O=S1(=O)C(c2cccs2)=C(c2cccs2)c2ccccc21
absorption maximum (in C1CCOC1): 372 nm

SMILES: CNc1cc2nc3cc(Cl)c(Cl)cc3nc2cc1NC
absorption maximum (in CCO): 442 nm

SMILES: Cc1cccc(C)c1N1C(c2ccccc2)=Cc2cccc[n+]2[B-]1(F)F
absorption maximum (in ClCCl): 397 nm

SMILES: c1ccc(C[n+]2ccc(-c3cc[n+](Cc4ccccc4)cc3)cc2)cc1
absorption maximum (in CC#N): 260 nm

SMILES: CCOc1cccc2c1O[B-](F)(F)[n+]1c3c(c4c(c1-2)-c1ccccc1CC4)-c1ccccc1CC3
absorption maximum (in ClCCl): 343 nm

SMILES: CCNc1cc2oc(=O)c3c(=O)oc4ccccc4c3c2cc1C
absorption maximum (in CS(C)=O): 454 nm
absorption maximum (in ClCCl): 441 nm

SMILES: CC(C)(C)OC(=O)COc1ccc2c(c1)oc(=O)c1c(=O)oc3ccccc3c12
absorption maximum (in CS(C)=O): 366 nm
absorption maximum (in ClCCl): 365 nm

SMILES: COc1ccc(N(c2ccc(OC)cc2)c2cc3ccc4cc(B(c5c(C)cc(C)cc5C)c5c(C)cc(C)cc5C)cc5ccc(c2)c3c45)cc1
absorption maximum (in C1CCOC1): 399 nm
absorption maximum (in CC(C)=O): 395 nm
absorption maximum (in CCCCCC): 398 nm
absorption maximum (in Cc1ccccc1): 402 nm
absorption maximum (in ClC(Cl)Cl): 399 nm
absorption maximum (in ClCCl): 397 nm

SMILES: CCOC(=O)C1=C(C)NC2=C(C(=O)c3ccccc32)C1c1ccc(N(C)C)cc1 (stereo not given)
absorption maximum (in C1CCOC1): 374 nm
absorption maximum (in C1COCCO1): 373 nm
absorption maximum (in CC#N): 379 nm
absorption maximum (in CCO): 395 nm
absorption maximum (in CN(C)C=O): 385 nm
absorption maximum (in CO): 389 nm
absorption maximum (in CS(C)=O): 400 nm
absorption maximum (in ClC(Cl)(Cl)Cl): 371 nm
absorption maximum (in ClC(Cl)Cl): 383 nm
absorption maximum (in ClCCl): 387 nm
